Tested on: rat neonatal cardiomyocytes
Test: Cardiomyocyte death induced by ischemia and reperfusion (in vitro model)
Type: cell-based
Settings: mixture with PEG (FIG. 14)
Method: Cardiomyocytes were prepared from hearts of day-old Sprague Dawley rats by trypsinization and mechanical disaggregation (Simpson, (1985)) Circ. Res. 56:884-894. The cells were resuspended in MEM, 1×MEM vitamins (Gibco), 5% fetal bovine serum and 50 U/ml penicillin-G and pre-plated for 30 minutes to reduce contamination of non-myocytes. The non-adherent cardiac myocytes were separated and seeded in 2 ml in 35 mm dishes at a density of 3.5×10^5 viable cells per ml. The cells were allowed to adhere for 16-24 hours in a 37° C./5% CO2 humidified incubator.
For serum deprivation, the medium was replaced with fresh serum-free RPMI, whereas serum/glucose deprivation was performed using glucose-free RPMI. The induction of cell death by adriamycin or C2-ceramide was accomplished by the addition of the agent prepared in serum-free RPMI. As a model of ischemia, cultures in serum and glucose free RPMI were placed in an airtight chamber and the latter was continuously perfused with oxygen-free gas overlay of 95% N2/5% CO2 for 8 hours at 37° C. […]
Because cardiomyocytes are terminally differentiated non-dividing cells, viability was determined by measurement of the decrease in the relative number of adherent cells. […] Adherent cardiomyocytes were collected from culture dishes using 0.25% Trypsin/0.05% EDTA and counted on Coulter Counter ZM and Coulter Channelyzer 256.

**Q.** Which “cardiomyocyte death induced by ischemia and reperfusion” value does the source give for `CCCCCCCC/C=C\CCCCCCCC(=O)OCC(O)COP(=O)(O)O` (stereo not shown) [18:1 LPA, oleoyl-lysophosphatidic acid] here?
**A.** equally protect
